Laboratory results from US6635621B1, “Cysteine protease inhibitors” (Naeja Pharmaceutical Inc., priority 1999, dated 2003).

Legend:
[1] = target: rat cathepsin L (Rattus norvegicus, UniProt P07154); assay: In vitro assay for inhibition of cathepsin L; format: biochemical; details: r rat cathepsin L, substrate N-CBZ-Phe-Arg-AMC, pH 5.0, 10 min incubation at room temperature
Procedure: In Vitro Assay Procedure for Cathepsin L
To a 170 μl of enzyme-buffer mixture (enzyme: r rat cathepsin L, diluted to give approximate 15 F units/min, buffer: 58.8 mM sodium citrate, 1.18 mM EDTA, 235 mM sodium chloride, 5 mM […], pH 5.0) a 10 μL of inhibitor (dissolved in DMSO) was added. After 10 min of incubation at room temperature, a 20 μl of 1 mM substrate (N-CBZ-Phe-Arg-AMC, dissolved in DMSO) was added to initiate reaction. Reading is followed up for 10 min at the fluoroscan reader (excitation at 380 nm emission at 460 nm).
(§1) A plot of percentage of inhibition vs inhibitor concentration is obtained, and IC50 is determined using a linear regression calculations (concentration of inhibitor which will give 50% inhibition).

[2] = target: cathepsin S (Homo sapiens, UniProt P25774); assay: In vitro assay for inhibition of cathepsin S; format: biochemical; details: r cathepsin S, substrate N-CBZ-Val-Val-Arg-AMC, pH 6.5, 10 min incubation at room temperature
Chain of cathepsin S (P25774 115-331, species assumed): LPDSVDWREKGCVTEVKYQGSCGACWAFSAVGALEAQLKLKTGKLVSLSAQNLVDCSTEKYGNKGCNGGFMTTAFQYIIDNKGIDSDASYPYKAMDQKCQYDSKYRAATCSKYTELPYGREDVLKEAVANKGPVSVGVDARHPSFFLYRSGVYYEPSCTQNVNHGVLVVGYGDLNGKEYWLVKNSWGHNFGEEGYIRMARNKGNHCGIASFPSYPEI
Procedure: In Vitro Assay Procedure for Cathepsin S
To a 170 μl of enzyme-buffer mixture (enzyme: r cathepsin S, diluted to give approximate 30 F units/min, buffer: 100 mM sodium phosphate, 1 mM EDTA, 5 mM DTT, 0.01% Brij, pH 6.5) a 10 μL of inhibitor (dissolved in DMSO) was added. After 10 min of incubation at room temperature, a 20 μl of 1.2 mM substrate (N-CBZ-Val-Val-Arg-AMC, dissolved in DMSO) was added to initiate reaction. Reading is followed up for 10 min at the fluoroscan II plate reader (excitation at 380 nm emission at 460 nm).
as §1

[3] = target: rat cathepsin B (Rattus norvegicus, UniProt P00787); assay: In vitro assay for inhibition of cathepsin B; format: biochemical; details: r rat cathepsin B, substrate N-CBZ-Phe-Arg-AMC, pH 5.1, 10 min incubation at room temperature
Chain of rat cathepsin B (P00787 80-333): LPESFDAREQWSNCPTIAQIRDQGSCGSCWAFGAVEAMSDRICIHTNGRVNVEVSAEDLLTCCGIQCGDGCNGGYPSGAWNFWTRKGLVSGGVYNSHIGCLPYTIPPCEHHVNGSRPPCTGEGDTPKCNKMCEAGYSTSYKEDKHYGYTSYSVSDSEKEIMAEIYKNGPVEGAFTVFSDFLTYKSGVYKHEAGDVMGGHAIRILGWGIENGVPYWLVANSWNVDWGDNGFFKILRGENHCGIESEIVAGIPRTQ
Procedure: In Vitro Assay Procedure for Cathepsin B
The compounds of formula I were tested for inhibition of cathepsin B using the known method (A. J. Barret et al., Biochem. J. 1982, 201, 189-198). To a 170 μl of enzyme-buffer mixture (enzyme: r rat cathepsin B, diluted to give approximate 10 F units/min, buffer: 56 mM sodium acetate, 1.124 mM EDTA, 10 mM DTT, pH 5.1) a 10 μL of inhibitor (dissolved in DMSO) was added. After 10 min of incubation at room temperature, a 20 μl of 5 mM substrate (N-CBZ-Phe-Arg-AMC, dissolved in DMSO) was added to initiate reaction. Reading is followed up for 10 min at the fluoroscan reader (excitation at 380 nm emission at 460 nm).
as §1

[4] = target: T1, cathepsin K (Homo sapiens, UniProt P43235); assay: In vitro assay for inhibition of cathepsin K; format: biochemical; details: r cathepsin K, substrate N-CBZ-Phe-Arg-AMC, pH 5.5, 10 min incubation at room temperature
T1 sequence (P43235 115-329): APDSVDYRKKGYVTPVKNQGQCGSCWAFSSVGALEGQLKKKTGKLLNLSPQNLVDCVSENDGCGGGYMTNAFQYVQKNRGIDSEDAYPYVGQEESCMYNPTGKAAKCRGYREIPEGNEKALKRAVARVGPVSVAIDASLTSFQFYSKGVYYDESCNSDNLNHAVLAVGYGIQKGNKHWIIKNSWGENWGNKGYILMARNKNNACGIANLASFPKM
Procedure: In Vitro Assay Procedure for Cathepsin K
To a 170 μl of enzyme-buffer mixture (enzyme: r cathepsin K, diluted to give approximate 30 F units/min, buffer: 100 mM sodium acetate, 5 mM EDTA, 20 mM L-cysteine, 0.01% Brij, pH 5.5) a 10 μL of inhibitor (dissolved in DMSO) was added. After 10 min of incubation at room temperature, a 20 μl of 2.7 mM substrate (N-CBZ-Phe-Arg-AMC, dissolved in DMSO) was added to initiate reaction. Reading is followed up for 10 min at the fluoroscan II plate reader (excitation at 380 nm emission at 460 nm).
as §1

Chain of rat cathepsin L (P07154 114-334): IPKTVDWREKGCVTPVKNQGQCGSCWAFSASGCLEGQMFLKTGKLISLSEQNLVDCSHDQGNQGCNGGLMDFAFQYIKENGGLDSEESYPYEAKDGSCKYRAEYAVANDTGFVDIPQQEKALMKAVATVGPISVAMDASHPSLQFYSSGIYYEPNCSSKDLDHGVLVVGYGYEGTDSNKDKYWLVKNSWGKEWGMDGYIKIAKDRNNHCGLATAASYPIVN

With `CC(C)C[C@H](NC(=O)OCc1ccccc1)C(=O)N/C(=C\N1CCCCC1)C(N)=O` [Example 9, 2-(2S-2-Benzyloxycarbonylamino-2-isopropylmethyl-acetamido)-3-piperidino-acrylamide] the IC50 [1] was 0.062 µM, the IC50 [2] was 0.05 µM and the melting point was 99 to 103 °C. For the same compound, the IC50 [3] was 0.89 µM and the IC50 [4] was 0.014 µM.
With `CC(C)C[C@H](NC(=O)OCc1ccccc1)C(=O)N/C(=C\N1CCN(C)CC1)C(N)=O` [Example 17, 2-(2S-2-Benzyloxycarbonylamino-2-isopropylmethyl-acetamido)-3-(4-methylpiperazino)-acrylamide] the IC50 [1] was 0.23 µM, the IC50 [2] was 0.18 µM and the melting point was 93.5 to 95 °C. It also gave an IC50 [3] of 1.9 µM and an IC50 [4] of 0.019 µM.
Work on `COC(=O)[C@H](Cc1ccccc1)N/C=C(\NC(=O)[C@H](Cc1ccccc1)NC(=O)OCc1ccccc1)C(N)=O` [Example 30b, (2Z)-(2S-2-Benzyloxycarbonylamino-2-phenylmethyl-acetamido)-3-(1-carbomethoxy-2-phenethylamino)-acrylamide] yielded an IC50 [1] of 0.035 µM, an IC50 [2] of 1.21 µM and an IC50 [3] of 1.83 µM. For the same compound, the IC50 [4] was 0.28 µM.
`CC(C)C[C@H](NC(=O)OCc1ccccc1)C(=O)N/C(=C/N1CCOCC1)C(=O)c1ccccc1` [Example 27, 2-[2S-(Benzyloxycarbonylamino)-2-isopropylmethyl-acetamido]-2-(morpholino-1-methylenyl)-acetophenone] showed an IC50 [1] of 4.24 µM, an IC50 [2] of 52.2 µM and an IC50 [3] of 32.3 µM. It also gave an IC50 [4] of 0.14 µM.
`CCOC(=O)/C(=C\N1CCOCC1)NC(=O)[C@H](Cc1ccccc1)NC(=O)OCc1ccccc1` [Example 22, Ethyl-2-[2S-(benzyloxycarbonylamino)-2-phenylmethyl-acetamido]-2-(morpholino-1-methylenyl)-acetate] gave an IC50 [1] of 0.04 µM, an IC50 [2] of 0.42 µM and an IC50 [3] of 0.08 µM. It also gave an IC50 [4] of 0.04 µM.
`O=C(CCc1ccccc1)N[C@@H](Cc1ccccc1)C(=O)N/C(=C/N1CCOCC1)C(=O)OC(c1ccccc1)c1ccccc1` [Example 25, Diphenylmethyl-2-[2S-(3-phenylpropionylamino)-2-phenylmethyl-acetamido]-2-(morpholino-1-methylenyl)-acetate] gave an IC50 [1] of 0.18 µM, an IC50 [2] of 0.18 µM and an IC50 [3] of 0.06 µM. For the same compound, the IC50 [4] was 0.065 µM.
`CC(C)C[C@H](NC(=O)OCc1ccccc1)C(=O)N/C(=C/N1CCOCC1)C(=O)c1ccc(F)cc1` [Example 29, 2-[2S-(Benzyloxycarbonylamino)-2-isopropylmethyl-acetamido]-2-(morpholino-1-methylenyl)-4′-fluoroacetophenone] showed an IC50 [1] of 2.01 µM, an IC50 [2] of 50.3 µM and an IC50 [3] of 50.3 µM. For the same compound, the IC50 [4] was 0.34 µM.
Work on `CC(=O)N/C=C(\NC(=O)[C@H](CC1CCCCC1)NC(=O)OCc1ccccc1)C(N)=O` [Example 19b, (2Z)-(2S-2-Benzyloxycarbonylamino-2-cyclohexylmethyl-acetamido)-3-acetamido-acrylamide] yielded an IC50 [1] of no less than 58 µM, an IC50 [2] of 5.23 µM and an IC50 [3] greater than 58 µM. For the same compound, the IC50 [4] was greater than 58 µM.
Compound `CC(=O)N/C=C(\NC(=O)[C@H](CC(C)C)NC(=O)OCc1ccccc1)C(N)=O` [Example 10b, (2Z)-(2S-2-Benzyloxycarbonylamino-2-isopropylmethyl-acetamido)-3-acetamido-acrylamide] has an IC50 [1] greater than 64 µM, an IC50 [2] greater than 3.2 µM and an IC50 [3] of 50.5 µM. The IC50 [4] was 10.7 µM.
`CC(C)C[C@H](NC(=O)OCc1ccccc1)C(=O)N/C(=C/N1CCOCC1)C(=O)OC(C)(C)C` [Example 20, tert-Butyl-2-[2S-(benzyloxycarbonylamino)-2-isopropylmethyl-acetamido]-2-(morpholino-1-methylenyl)-acetate] gave an IC50 [1] of 0.08 µM, an IC50 [2] of 0.38 µM and an IC50 [3] of 0.42 µM. For the same compound, the IC50 [4] was 0.004 µM.
`COC(=O)CN/C=C(/NC(=O)[C@H](Cc1ccccc1)NC(=O)OCc1ccccc1)C(N)=O` [Example 31a, (2E)-(2S-2-Benzyloxycarbonylamino-2-phenylmethyl-acetamido)-3-(1-carbomethoxy-methylamino)-acrylamide] gave an IC50 [1] of 0.017 µM, an IC50 [2] of 0.7 µM and an IC50 [3] of 0.66 µM. It also gave an IC50 [4] of 0.13 µM.
`CCOC(=O)/C(=C\N1CCN(C)CC1)NC(=O)[C@H](CC(C)C)NC(=O)OCc1ccccc1` [Example 21, Ethyl-2-[2S-(benzyloxycarbonylamino)-2-isopropylmethyl-acetamido]-2-(4-methylpiperazino-1-methylenyl)-acetate] showed an IC50 [1] of 0.21 µM, an IC50 [2] of 0.3 µM and an IC50 [3] of 8.21 µM. It also gave an IC50 [4] of 0.087 µM.
In the case of `CCOC(=O)/C(=C\N1CCOCC1)NC(=O)[C@H](CC1CCCCC1)NC(=O)OCc1ccccc1` [Example 24, Ethyl-2-[2S-(benzyloxycarbonylamino)-2-cyclohexylmethyl-acetamido]-2-(morpholino-1-methylenyl)-acetate], the IC50 [1] is reported as 0.082 µM, the IC50 [2] is reported as 0.0033 µM and the IC50 [3] is reported as 0.082 µM. For the same compound, the IC50 [4] was 0.37 µM.
`NC(=O)C(NC(=O)[C@H](Cc1ccccc1)NC(=O)OCc1ccccc1)C(O)O` (stereo partly drawn) [Example 13, 2-(2S-2-Benzyloxycarbonylamino-2-benzyl-acetamido)-3,3-dihydroxy-propionamide] gave an IC50 [1] of 0.004 µM, an IC50 [2] of 0.004 µM and an IC50 [3] of 1.4 µM. For the same compound, the IC50 [4] was 0.4 µM.
`COc1ccc(C(=O)/C(=C\N2CCOCC2)NC(=O)[C@H](CC(C)C)NC(=O)c2cc3ccccc3s2)cc1` [Example 26, 2-[2S-(Benzothiophen-2-carbonylamino)-2-isopropylmethyl-acetamido]-2-(morpholino-1-methylenyl)-4′-methoxyacetophenone] gave an IC50 [1] of 0.075 µM, an IC50 [2] of 0.99 µM and an IC50 [3] of 1.47 µM. It also gave an IC50 [4] of 0.015 µM.
Work on `COC(=O)CN/C=C(\NC(=O)[C@H](Cc1ccccc1)NC(=O)OCc1ccccc1)C(N)=O` [Example 31b, (2Z)-(2S-2-Benzyloxycarbonylamino-2-phenylmethyl-acetamido)-3-(1-carbomethoxy-methylamino)-acrylamide] yielded an IC50 [1] of 0.017 µM, an IC50 [2] of 0.43 µM and an IC50 [3] of 0.43 µM. It also gave an IC50 [4] of 0.09 µM.
For `COC(=O)[C@H](Cc1ccccc1)N/C=C(/NC(=O)[C@H](Cc1ccccc1)NC(=O)OCc1ccccc1)C(N)=O` [Example 30a, (2E)-(2S-2-Benzyloxycarbonylamino-2-phenylmethyl-acetamido)-3-(1-carbomethoxy-2-phenethylamino)-acrylamide], the IC50 [1] was 0.048 µM, the IC50 [2] was 0.57 µM and the IC50 [3] was 1.83 µM. For the same compound, the IC50 [4] was 0.28 µM.
Work on `CC(C)C[C@H](NC(=O)OCc1ccccc1)C(=O)NC(=CNCc1ccccc1)C(=O)NCc1ccccc1` [Example 16, 2-(2S-2-Benzyloxycarbonylamino-2-isopropylmethyl-acetamido)-3-benzylamino-N-benzyl-acrylamide] yielded an IC50 [1] of 0.015 µM, an IC50 [2] of 0.026 µM and an IC50 [3] of 0.15 µM. It also gave an IC50 [4] of 0.01 µM.
`COc1ccc(C(=O)/C(=C\N2CCOCC2)NC(=O)[C@H](CC(C)C)NC(=O)OCc2ccccc2)cc1` [Example 28, 2-[2S-(Benzyloxycarbonylamino)-2-isopropylmethyl-acetamido]-2-(morpholino-1-methylenyl)-4′-methoxyacetophenone] showed an IC50 [1] of 0.27 µM, an IC50 [2] of 1.3 µM and an IC50 [3] of 1.96 µM. It also gave an IC50 [4] of 0.016 µM.
`CCOC(=O)/C(=C\N1CCOCC1)NC(=O)[C@H](CC(C)C)NC(=O)OCc1ccccc1` [Example 23, Ethyl-2-[2S-(benzyloxycarbonylamino)-2-isopropylmethyl-acetamido]-2-(morpholino-1-methylenyl)-acetate] showed an IC50 [1] of 0.089 µM, an IC50 [2] of 0.038 µM and an IC50 [3] of 0.45 µM. For the same compound, the IC50 [4] was 0.011 µM.
